# pIC50: −log10 of the molar value.
# Legend:
# [1] = tested on: LPA 18:2 level in mouse plasma; experiment: In vitro LPA assay, reduction of LPA 18:2 level in mouse plasma (LC-MS/MS); type: biochemical; settings: 2 hr at 37° C., LPA 18:2 reduction
# Experimental: (§1) Autotaxin (ATX) plays an important role in lysophosphatidic acid (LPA) signaling. An in vitro LPA assay was conducted to determine IC50 values of the test compounds on reduction of LPA 18:2 level in rat or mouse plasma. This example describes the assay data (IC50 value ranges) of exemplary compounds from LPA assays using mouse and rat plasma. Compound GPLG-1690 was assayed as a reference compound.
# (§2) The 10 mM DMSO stock solutions of test compounds and 4-fold serial dilutions of the test compounds were prepared at various concentrations. The diluted solutions of the compounds were diluted with 1×PBS (pH 7.5) buffer. 38 μL of rat or mouse plasma samples were mixed with 2 μL of the diluted solutions of the compounds or 2% DMSO solutions in 96-well plate (final 0.1% DMSO). After incubating for 2 hr at 37° C., 120 μL MeOH containing IS (250 ng/mL of LPA 17:0) was added to each well. Mixture was vortexed for 1 min, and then centrifuged for 30 min (4000 rpm, 4° C.). 100 μL supernatant was transferred to a 96-well plate containing 100 μL pure water and the plate was shaken for 10 min. 5 μL supernatant was injected into LC-MS/MS system. No calibration curve will be prepared for LPA 18:2 and all quantifications were performed based on peak area ratios (LPA 18:2/LPA 17:0). For each concentration of compound LPA data were expressed as percentage of reduction (% reduction) using the formula. 100−[((LPA ratio-LPA ratio in control sample after 0 hr incubation)/(LPA ratio in control sample after 2 hr incubation—LPA ratio in control sample after 0 hr incubation))*100]. Data
# [2] = Mouse PK study (IV and PO); type: in vivo; settings: male, C57BL/6, mouse, plasma, male C57BL/6 mice; for AUC(0-inf): IV 2 mg/kg and PO 10 mg/kg study; for bioavailability / Cmax: po, 10 mg/kg; for bioavailability: IV 2 mg/kg and PO 10 mg/kg, read-out: F % (bioavailability); for Cmax: PO group 10 mg/kg
# [3] = tested on: LPA 18:2 level in rat plasma; experiment: In vitro LPA assay, reduction of LPA 18:2 level in rat plasma (LC-MS/MS); type: biochemical; settings: 2 hr at 37° C., LPA 18:2 reduction
# Experimental: as §1, §2
# hATX/ENPP2 = hATX/ENPP2 (Homo sapiens, UniProt Q13822); experiment: hATX/ENPP2 biochemical assay using 16:0-LPC as substrate (Amplex Red/choline oxidase/HRP fluorescence); settings: hENPP2 2.5 nM, LPC (16:0) substrate
# How it was run: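 Enzyme preincubated with compounds 15 min at room temperature in 50 mM Tris-HCl pH 8.0, 140 mM NaCl, 5 mM CaCl2, 0.01% Triton X-100. Reaction started with 80 μM LPC (16:0) stock plus Amplex Red/choline oxidase/HRP mix; fluorescence (ex 530/em 590 nm) read kinetically. IC50 from slope between 60 and 70 min.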
pIC50 [1],AUC(0-inf) [2],bioavailability [2],pIC50 [3],pIC50 (hATX/ENPP2),Cmax [2],Compound
6.10 to 6.70,37100 ng·h/mL,48.5%,≥ 6.70,≥ 7.70,–,"CCc1nc2ccc(-c3cnc(N4CCC(C(=O)N5CCCC5)CC4)nc3)cn2c1N(C)c1nc(-c2ccc(F)cc2)c(C#N)s1 [Compound 115, 2-((2-ethyl-6-(2-(4-(pyrrolidine-1-carbonyl)piperidin-1-yl)pyrimidin-5-yl)imidazo [1,2-a]pyridin-3-yl)(methyl)amino)-4-(4-fluorophenyl)thiazole-5-carbonitrile]"
6.10 to 6.70,61000 ng·h/mL,55.7%,6.10 to 6.70,≥ 7.70,7750 ng/mL,"CCc1nc2ccc(-c3cnc(N4CCC(C(=O)N5CCC5)CC4)nc3)cn2c1N(C)c1nc(-c2ccc(F)cc2)c(C#N)s1 [Compound 123, 2-((6-(2-(4-(azetidine-1-carbonyl)piperidin-1-yl)pyrimidin-5-yl)-2-ethylimidazo[1,2-a]pyridin-3-yl)(methyl)amino)-4-(4-fluorophenyl)thiazole-5-carbonitrile]"
6.10 to 6.70,38000 ng·h/mL,28.4%,6.10 to 6.70,≥ 7.70,7040 ng/mL,"CCc1nc2ccc(-c3ccc(N4CCC(C(=O)N5CC[C@@H](O)C5)CC4)nc3)cn2c1N(C)c1nc(-c2ccc(F)cc2)c(C#N)s1 [Compound 114, (R)-2-((2-ethyl-6-(6-(4-(3-hydroxypyrrolidine-1-carbonyl)piperidin-1-yl)pyridin-3-yl)imidazo[1,2-a]pyridin-3-yl)(methyl)amino)-4-(4-fluorophenyl)thiazole-5-carbonitrile]"
6.10 to 6.70,57100 ng·h/mL,33.1%,6.10 to 6.70,≥ 7.70,7680 ng/mL,"CCc1nc2ccc(-c3ccc(N4CCC(C(=O)N5CCC(O)CC5)CC4)nc3)cn2c1N(C)c1nc(-c2ccc(F)cc2)c(C#N)s1 [Compound 119, 2-((2-ethyl-6-(6-(4-(4-hydroxypiperidine-1-carbonyl)piperidin-1-yl)pyridin-3-yl)imidazo[1,2-a]pyridin-3-yl)(methyl)amino)-4-(4-fluorophenyl)thiazole-5-carbonitrile]"

# Source: patent US11970493B2, “Autotaxin inhibitor compounds” (ILDONG PHARMACEUTICAL CO., LTD., priority 2020, dated 2024)
